Assay results from patent publication US20230374038A1, “MODULATORS OF CYSTIC FIBROSIS TRANSMEMBRANE CONDUCTANCE REGULATOR” (VERTEX PHARMACEUTICALS INCORPORATED, priority 2020, published 2023).

What follows are compounds tested against T1, CFTR (Homo sapiens, UniProt P13569, DEL508-508) (assay: HBE Assay: Ussing chamber assay of CFTR-mediated short-circuit currents in F508del/MF-HBE cells with 1 μM Ivacaftor). Conditions: range of concentrations with 1 μM Ivacaftor, 18-24 hours, 20% human serum.
T1 construct: endogenous in cells; host or cells: primary human bronchial epithelial cells, F508del/MF genotype
Assay type: cell-based
Procedure, shortened: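 F508del/MF-HBE cells at air-liquid interface >14 days were incubated 18-24 h at 37° C with corrector (concentration range or fixed 10 μM) plus 1 μM Ivacaftor in 20% human serum, compounds kept throughout. Ussing chamber, Vhold=0 mV, 37° C, apical amiloride 30 μM; ISC (μA/cm^2) from peak 20 μM forskolin response to steady state after CFTR inhibitor cocktail.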

T1 sequence (P13569 with tags, fused parts or gaps DEL508-508): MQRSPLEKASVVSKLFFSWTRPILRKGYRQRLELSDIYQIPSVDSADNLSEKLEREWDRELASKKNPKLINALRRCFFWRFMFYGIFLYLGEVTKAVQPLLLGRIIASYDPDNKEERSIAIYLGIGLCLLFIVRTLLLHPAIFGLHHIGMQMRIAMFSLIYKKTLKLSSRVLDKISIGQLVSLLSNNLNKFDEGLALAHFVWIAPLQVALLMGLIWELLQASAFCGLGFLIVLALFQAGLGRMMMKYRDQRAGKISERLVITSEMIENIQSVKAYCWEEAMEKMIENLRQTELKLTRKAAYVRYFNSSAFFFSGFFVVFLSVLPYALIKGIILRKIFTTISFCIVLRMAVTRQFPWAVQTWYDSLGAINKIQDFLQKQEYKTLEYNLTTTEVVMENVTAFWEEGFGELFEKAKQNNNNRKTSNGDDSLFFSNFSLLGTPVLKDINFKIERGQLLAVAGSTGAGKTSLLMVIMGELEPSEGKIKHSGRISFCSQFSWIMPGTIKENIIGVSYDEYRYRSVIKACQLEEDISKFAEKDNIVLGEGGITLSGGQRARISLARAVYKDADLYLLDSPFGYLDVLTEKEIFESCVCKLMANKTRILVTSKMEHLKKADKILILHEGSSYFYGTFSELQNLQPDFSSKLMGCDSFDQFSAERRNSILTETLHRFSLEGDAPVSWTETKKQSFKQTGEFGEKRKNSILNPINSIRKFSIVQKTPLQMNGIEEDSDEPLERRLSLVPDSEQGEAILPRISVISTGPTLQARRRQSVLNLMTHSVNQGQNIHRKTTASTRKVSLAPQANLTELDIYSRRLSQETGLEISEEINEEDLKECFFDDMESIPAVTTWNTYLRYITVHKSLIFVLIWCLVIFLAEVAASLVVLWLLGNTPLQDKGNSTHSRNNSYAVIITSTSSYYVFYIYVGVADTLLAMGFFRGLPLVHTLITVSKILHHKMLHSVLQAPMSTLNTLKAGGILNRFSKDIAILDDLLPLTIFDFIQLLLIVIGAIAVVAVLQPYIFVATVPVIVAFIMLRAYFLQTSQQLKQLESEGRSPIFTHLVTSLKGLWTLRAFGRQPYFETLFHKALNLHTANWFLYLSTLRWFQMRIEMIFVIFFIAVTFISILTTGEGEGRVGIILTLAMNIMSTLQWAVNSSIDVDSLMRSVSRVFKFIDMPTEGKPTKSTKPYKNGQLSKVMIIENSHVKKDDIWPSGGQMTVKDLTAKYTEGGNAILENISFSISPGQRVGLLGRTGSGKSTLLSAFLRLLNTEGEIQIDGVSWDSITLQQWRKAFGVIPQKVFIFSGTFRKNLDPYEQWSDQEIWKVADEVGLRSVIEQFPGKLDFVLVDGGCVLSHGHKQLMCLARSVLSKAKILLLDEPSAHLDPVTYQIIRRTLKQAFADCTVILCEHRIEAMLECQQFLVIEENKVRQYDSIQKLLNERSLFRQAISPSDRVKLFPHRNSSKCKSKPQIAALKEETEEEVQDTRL

EC50 [µM]	SMILES
< 1	Cc1cccc(C)c1-c1nc2nc(c1F)OC[C@@H](CC(C)(C)C)N(Cc1ncc(N3CCC(C)(C)C3)cn1)C(=O)c1cccc(c1)S(=O)(=O)N2 [Compound 341]
< 1	Cc1cccc(C)c1-c1nc2nc(c1F)OC[C@@H](CC(C)C)N(Cc1ncc(N3CCC(C)(C)C3)cn1)C(=O)c1cccc(c1)S(=O)(=O)N2 [Compound 342]
< 1	Cc1cccc(C)c1-c1nc2nc(c1F)OC[C@@H](CC(C)C)N(Cc1ncc(OC(C)C)cn1)C(=O)c1cccc(c1)S(=O)(=O)N2 [Compound 337]
< 1	Cc1cccc(C)c1-c1nc2nc(c1C)OC[C@@H](CC(C)(C)C)N(Cc1cnc(C3CCOCC3)cn1)C(=O)c1cccc(c1)S(=O)(=O)N2 [Compound 331]
1 to 3	Cc1cccc(C)c1-c1nc2nc(c1F)OC[C@@H](CC1CC1)N(Cc1ncc(OC(C)C)cn1)C(=O)c1cccc(c1)S(=O)(=O)N2 [Compound 343]

Same assay, conditions: single fixed concentration of 10 μM with 1 μM Ivacaftor, 18-24 hours, 20% human serum

HBE Activity at 10 μM (%)	SMILES
+++ (+++ is >60%)	Cc1cccc(C)c1-c1nc2nc(c1C)OC[C@@H](CC1CCC1)N(Cc1ncc(OC(C)C)cn1)C(=O)c1cccc(c1)S(=O)(=O)N2 [Compound 355]

Same assay, conditions: single fixed concentration of 10 μM, with 1 μM Ivacaftor, 20% human serum

HBE Activity at 10 μM	SMILES
+++ (+++ is >600%)	Cc1cccc(CC(C)C)c1-c1nc2nc(c1C)OC[C@@H](CC(C)(C)C)N(Cc1ncc(N(C)CC(C)(C)C)cn1)C(=O)c1cccc(c1)S(=O)(=O)N2 (atropisomer, axis not shown; (M)) [Compound 210, (5M,11R)-11-(2,2-dimethylpropyl)-12-({5-[(2,2-dimethylpropyl)(methyl)amino]pyrimidin-2-yl}methyl)-7-methyl-6-[2-methyl-6-(2-methylpropyl)phenyl]-9-oxa-2λ^6-thia-3,5,12,19-tetraazatricyclo[12.3.1.14,8]nonadeca-1(17),4(19),5,7,14(18),15-hexaene-2,2,13-trione]
+++ (+++ is >600%)	COCCN(C)c1cnc(CN2C(=O)c3cccc(c3)S(=O)(=O)Nc3nc(c(C)c(-c4c(C)cccc4CC(C)C)n3)OC[C@H]2CC(C)(C)C)nc1 (atropisomer, axis not shown) [Compound 293]
+++ (+++ is >600%)	Cc1cccc(CC2CCCC2)c1-c1nc2nc(c1C)OC[C@@H](CC(C)(C)C)NC(=O)c1cccc(c1)S(=O)(=O)N2 (atropisomer, axis not shown) [Compound 225]
+++ (+++ is >600%)	Cc1cccc(C(C)C)c1-c1nc2nc(c1C)OC[C@@H](CC(C)(C)C)N(Cc1cnc(C3CCOCC3)cn1)C(=O)c1cccc(c1)S(=O)(=O)N2 (atropisomer, axis not shown) [Compound 318]
+++ (+++ is >600%)	Cc1cccc(CC2CCCC2)c1-c1nc2nc(c1C)OC[C@@H](CC(C)(C)C)N(Cc1ccc(N3CCOCC3)cn1)C(=O)c1cccc(c1)S(=O)(=O)N2 (atropisomer, axis not shown) [Compound 288]
++ (++ is 30-60%)	Cc1cccc(CC2CCCCC2)c1-c1nc2nc(c1C(F)(F)F)OC[C@@H](CC(C)(C)C)N(Cc1ncc(N3CCOCC3)cn1)C(=O)c1cccc(c1)S(=O)(=O)N2 (atropisomer, axis not shown) [Compound 245]
++ (++ is 30-60%)	Cc1cccc(CC2CCCCC2)c1-c1nc2nc(c1C(F)(F)F)OC[C@@H](CC(C)(C)C)N(Cc1ccc(N3CCOCC3)cn1)C(=O)c1cccc(c1)S(=O)(=O)N2 (atropisomer, axis not shown) [Compound 249]

Same assay, conditions: with 1 μM Ivacaftor, 18-24 hours, 20% human serum

EC50 [µM]	HBE Max Activity	SMILES
< 1	+++ (+++ is >600%)	Cc1cccc(CC(C)C)c1-c1nc2nc(c1C)OC[C@@H](CC(C)(C)C)N(Cc1ncc(OC(C)C)cn1)C(=O)c1cccc(c1)S(=O)(=O)N2 (atropisomer, axis not shown) [Compound 233]
< 1	+++ (+++ is >600%)	Cc1cccc(C(C)C)c1-c1nc2nc(c1C)OC[C@@H](CC(C)(C)C)N(Cc1ncc(N3CCOCC3)cn1)C(=O)c1cccc(c1)S(=O)(=O)N2 (single isomer, unassigned) [Compound 209]
< 1	+++ (+++ is >600%)	Cc1cccc(CC(C)C)c1-c1nc2nc(c1C)OC[C@@H](CC(C)(C)C)N(Cc1ccc(N3CCOCC3)cn1)C(=O)c1cccc(c1)S(=O)(=O)N2 (atropisomer, axis not shown) [Compound 297]
< 1	+++ (+++ is >600%)	Cc1cccc(CC(C)C)c1-c1nc2nc(c1C)OC[C@@H](CC(C)(C)C)N(Cc1cnc(C3CCOCC3)cn1)C(=O)c1cccc(c1)S(=O)(=O)N2 (atropisomer, axis not shown) [Compound 313]
< 1	+++ (+++ is >600%)	Cc1cccc(CC2CCCCC2)c1-c1nc2nc(c1C)OC[C@@H](CC(C)(C)C)N(Cc1nccc(N3CCOCC3)n1)C(=O)c1cccc(c1)S(=O)(=O)N2 (atropisomer, axis not shown) [Compound 263]
< 1	+++ (+++ is >600%)	Cc1cccc(CC2CCCC2)c1-c1nc2nc(c1C)OC[C@@H](CC(C)(C)C)N(Cc1ccc(OC(C)C)cn1)C(=O)c1cccc(c1)S(=O)(=O)N2 (atropisomer, axis not shown) [Compound 267]
< 1	+++ (+++ is >600%)	Cc1cccc(CC2CCCCC2)c1-c1nc2nc(c1C)OC[C@@H](CC(C)(C)C)N(Cc1ccc(N3CCOCC3)cn1)C(=O)c1cccc(c1)S(=O)(=O)N2 (single isomer, unassigned) [Compound 206]
< 1	+++ (+++ is >600%)	Cc1cccc(CC2CCCCC2)c1-c1nc2nc(c1C)OC[C@@H](CC(C)(C)C)N(Cc1ccc(N3CCCCC3)cn1)C(=O)c1cccc(c1)S(=O)(=O)N2 (atropisomer, axis not shown) [Compound 307]
< 1	+++ (+++ is >600%)	COc1ccc(CN2C(=O)c3cccc(c3)S(=O)(=O)Nc3nc(c(C)c(-c4c(C)cccc4CC4CCCCC4)n3)OC[C@H]2CC(C)(C)C)nc1 (atropisomer, axis not shown) [Compound 301]
< 1	+++ (+++ is >600%)	Cc1cccc(CC2CCCCC2)c1-c1nc2nc(c1C)OC[C@@H](CC(C)(C)C)NC(=O)c1cccc(c1)S(=O)(=O)N2 (atropisomer, axis not shown) [Compound 311]
< 1	+++ (+++ is >600%)	Cc1cccc(C2CC2)c1-c1nc2nc(c1C)OC[C@@H](CC(C)(C)C)N(Cc1ccc(N3CCOCC3)cn1)C(=O)c1cccc(c1)S(=O)(=O)N2 (atropisomer, axis not shown) [Compound 228]
1 to 3	+++ (+++ is >600%)	Cc1cccc(CC2CCCCC2)c1-c1nc2nc(c1C)OC[C@@H](CC(C)(C)C)N(Cc1ncc(N3CCC(C)(C)C3)cn1)C(=O)c1cccc(c1)S(=O)(=O)N2 (atropisomer, axis not shown) [Compound 254]
< 1	+++ (+++ is >600%)	Cc1cccc(CC2CCCCC2)c1-c1nc2nc(c1C)OC[C@@H](CC(C)(C)C)N(Cc1ncc(N3CCC(C)(C)CC3)cn1)C(=O)c1cccc(c1)S(=O)(=O)N2 (atropisomer, axis not shown) [Compound 260]
< 1	+++ (+++ is >600%)	Cc1cccc(CC(C)C)c1-c1nc2nc(c1C)OC[C@@H](CC(C)(C)C)N(Cc1ncc(N3CCOCC3)cn1)C(=O)c1cccc(c1)S(=O)(=O)N2 (atropisomer, axis not shown) [Compound 296]
< 1	+++ (+++ is >600%)	Cc1cccc(C2CC2)c1-c1nc2nc(c1C)OC[C@@H](CC(C)(C)C)N(Cc1cnc(C3CCOCC3)cn1)C(=O)c1cccc(c1)S(=O)(=O)N2 (atropisomer, axis not shown) [Compound 320]
< 1	+++ (+++ is >600%)	Cc1cccc(C(C)C)c1-c1nc2nc(c1C)OC[C@@H](CC(C)(C)C)N(Cc1ncc(N3CCOCC3)cn1)C(=O)c1cccc(c1)S(=O)(=O)N2 (single isomer, unassigned) [Compound 208]
< 1	+++ (+++ is >600%)	Cc1cccc(CC2CCCCC2)c1-c1nc2nc(c1C)OC[C@@H](CC(C)(C)C)N(Cc1nccc(N(C)C)n1)C(=O)c1cccc(c1)S(=O)(=O)N2 (atropisomer, axis not shown) [Compound 261]
< 1	+++ (+++ is >600%)	Cc1cccc(CC2CCCCC2)c1-c1nc2nc(c1C)OC[C@@H](CC(C)(C)C)N(Cc1ccc(N3CCCCC3)cn1)C(=O)c1cccc(c1)S(=O)(=O)N2 (atropisomer, axis not shown) [Compound 308]
< 1	+++ (+++ is >600%)	Cc1cccc(CC2CCCCC2)c1-c1nc2nc(c1C)OC[C@@H](CC(C)(C)C)N(Cc1ncc(OC(C)C)cn1)C(=O)c1cccc(c1)S(=O)(=O)N2 [Compound 234]
< 1	+++ (+++ is >600%)	Cc1cccc(CC2CCCCC2)c1-c1nc2nc(c1C)OC[C@@H](CC(C)(C)C)N(Cc1ccc(N3CCOCC3)cn1)C(=O)c1cccc(c1)S(=O)(=O)N2 (single isomer, unassigned) [Compound 207]
< 1	+++ (+++ is >600%)	Cc1cccc(C)c1-c1nc2nc(c1C)OC[C@@H](CC(C)(C)C)N(Cc1ncc(N3CCC(C)(C)C3)cn1)C(=O)c1cccc(c1)S(=O)(=O)N2 [Compound 191]
< 1	+++ (+++ is >600%)	Cc1cccc(CC2CCOCC2)c1-c1nc2nc(c1C)OC[C@@H](CC(C)(C)C)N(Cc1ncc(N3CCOCC3)cn1)C(=O)c1cccc(c1)S(=O)(=O)N2 (single isomer, unassigned) [Compound 218]

Same assay, conditions: with 1 μM Ivacaftor, 18-24 hours, 20% human serum, compared to known Vertex corrector with 18 μM Tezacaftor and 1 μM Ivacaftor, read-out: HBE Max activity (%)

Emax [%]	SMILES
> 60	Cc1cccc(C)c1-c1nc2nc(c1F)OC[C@@H](CC(C)(C)C)N(Cc1ncc(N3CCC(C)(C)C3)cn1)C(=O)c1cccc(c1)S(=O)(=O)N2 [Compound 341]
> 60	Cc1cccc(C)c1-c1nc2nc(c1F)OC[C@@H](CC(C)C)N(Cc1ncc(N3CCC(C)(C)C3)cn1)C(=O)c1cccc(c1)S(=O)(=O)N2 [Compound 342]
> 60	Cc1cccc(C)c1-c1nc2nc(c1F)OC[C@@H](CC(C)C)N(Cc1ncc(OC(C)C)cn1)C(=O)c1cccc(c1)S(=O)(=O)N2 [Compound 337]
> 60	Cc1cccc(C)c1-c1nc2nc(c1C)OC[C@@H](CC(C)(C)C)N(Cc1cnc(C3CCOCC3)cn1)C(=O)c1cccc(c1)S(=O)(=O)N2 [Compound 331]
> 60	Cc1cccc(C)c1-c1nc2nc(c1F)OC[C@@H](CC1CC1)N(Cc1ncc(OC(C)C)cn1)C(=O)c1cccc(c1)S(=O)(=O)N2 [Compound 343]
